According to article PMC8622152, “Expression Profile and Ligand Screening of a Putative Odorant-Binding Protein, AcerOBP6, from the Asian Honeybee” (Insects, 2021):
pIC50, pKi: −log10 of the molar value. “Also recorded” adds a separate entry of the source. Read-outs that look alike come from different tables or passages of the source.

Legend:
antennae of forager bees = assay: EAG assay based on RNAi (dsOBP6 feeding); parameters: species or system Apis cerana cerana; conditions: for change of EAG response in dsOBP6 group versus controls: 48 h after feeding dsOBP6-2 dsRNA, p < 0.05
Description: The plasmid extracted in Section 2.3 was used as a template to generate 2 dsRNA fragments of AcerOBP6. Meanwhile, dsRNA was synthesized using a T7 RiboMAX™ Express RNAi System (Promega, Madison, WI, USA); the primers used for dsRNA generating are listed in Table S1. The final concentration of dsRNA generation was diluted to 2.5 μg/μL. The concentration and integrity of dsRNA were determined using NanoDrop and agarose gel electrophoresis (1%). Forager bees were collected and fed with AcerOBP6 dsRNA (8 μg for each bee), and then maintained in an artificial climate incubator (65–75% RH; 28 ± 0.4 °C). At the same time, the GFP dsRNA and 30% sugar were employed as the control groups. Each experiment group included 30 bees, and 3 biological repeats were performed. At times of 24, 48, and 96 h after feeding, the RNAi effects were verified by qRT-PCR.
The antennae of forager bees were dissected from the bottom and immediately fixed to both sides of a two-pronged electrode using Spectra 360 electrode gel (Parker Laboratories Inc., Fairfield, NJ, USA). The odorants were dissolved in liquid paraffin to final concentrations of 300 μg/μL, and liquid paraffin was adopted as a blank control. A filter paper strip (3 cm × 1cm) filled with 10 μL tested solution was prepared and put into the tube of Pasteur Pipette, which was connected with the gas feeder equipment. The stimulation time of each odor was 0.5 s and the interval was 30 s. Three technical repetitions were carried out, and ten antennae of female adults were tested for each compound. Finally, the EAGPro software (Syntech) was used to analyze the EAG response recordings.

AcerOBP6 = AcerOBP6 (Apis cerana cerana, UniProt A0A2A3ES84); format: binding; conditions: for binding affinity with AcerOBP6 (in words): competitive binding with 1-NPN, ligand up to 10 µM; for pKi: Ki = [IC50]/(1 + [1-NPN]/K1-NPN), read-out: Ki (dissociation constant); for pKi / pIC50: AcerOBP6 1 µM, 1-NPN 1 µM; for pIC50: concentration of ligand displacing 50% 1-NPN, ligand 1-10 µM, short dash: not possible to calculate the IC50 value
Description: Afterwards, the fluorescent probe N-phenyl-1-naphthylamine (1–NPN) was dissolved in methanol to yield a 1 mM stock solution. […] The binding constant of 1-NPN to AcerOBP6 (K1–NPN) was calculated using Scatchard plots of the binding data in GraphPad Prism 8.0.
Taking 1–NPN as the fluorescent reporter, we measured the binding affinity of each odorant by competitive binding assays using. All the 33 ligands (listed in Table S2) were dissolved in spectrally pure grade methanol. We titrated the odorants in a solution containing AcerOBP6 protein (1 μM) and 1–NPN (1 μM) to the final concentrations of 1–10 μM, respectively.

Chain of AcerOBP6 (A0A2A3ES84 entry or part of it): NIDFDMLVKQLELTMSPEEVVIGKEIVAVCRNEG

CCCCCCCCCO [1-Nonanol]
change of EAG response in dsOBP6 group versus controls (antennae of forager bees): significantly decreased

CCCCCC(C)=O [2-Heptanone]
change of EAG response in dsOBP6 group versus controls (antennae of forager bees): significantly decreased; also recorded: significant change
EAG response of worker bee antennae (antennae of forager bees; odorant 300 µg/µL in liquid paraffin, 10 µL on filter paper, 0.5 s stimulation): strongest response; also recorded: strong EAG responses

CCOC(=O)/C=C/c1ccccc1 [Ethyl cinnamate]
binding affinity with AcerOBP6 (in words) (AcerOBP6): could not bind or had a weak binding affinity

CCCCC/C=C\C/C=C\CCCCCCCC(=O)OCC [Ethyl linoleate]
binding affinity with AcerOBP6 (in words) (AcerOBP6): could not bind or had a weak binding affinity

CCCCCCCC/C=C\CCCCCCCC(=O)OCC [Ethyl oleate]
binding affinity with AcerOBP6 (in words) (AcerOBP6): could not bind or had a weak binding affinity

CCOC(=O)/C=C/c1ccccc1 [Ethyl-trans-cinnamate]
pKi (AcerOBP6; listed as ethyl-trans-cinnamate): 5.43
pKi (AcerOBP6): 5.43
pIC50 (AcerOBP6): 5.41

CC12CCC(CC1)C(C)(C)O2 [Eucalyptol]
change of EAG response in dsOBP6 group versus controls (antennae of forager bees): significantly decreased

CC(=O)OCCC(C)C [Isoamyl acetate]
binding affinity with AcerOBP6 (in words) (AcerOBP6): could not bind or had a weak binding affinity

C=CC(C)(O)CCC=C(C)C (centres unmarked) [Linalool]
change of EAG response in dsOBP6 group versus controls (antennae of forager bees): significantly decreased

CC/C=C\C/C=C\C/C=C\CCCCCCCC(=O)OC [Methyl linolenate]
binding affinity with AcerOBP6 (in words) (AcerOBP6): could not bind or had a weak binding affinity

CCCCCCCC/C=C\CCCCCCCC(=O)OC [Methyl oleate]
binding affinity with AcerOBP6 (in words) (AcerOBP6): could not bind or had a weak binding affinity

CCCCCCCCCCCCCCCC(=O)OC [Methyl palmitate]
binding affinity with AcerOBP6 (in words) (AcerOBP6): could not bind or had a weak binding affinity
pIC50 (AcerOBP6): < 5.00

CCCCCCCCCCCCCCCCCC(=O)OC [Methyl stearate]
binding affinity with AcerOBP6 (in words) (AcerOBP6): could not bind or had a weak binding affinity

C=CC(=C)CCC=C(C)C [Myrcene]
change of EAG response in dsOBP6 group versus controls (antennae of forager bees): significantly decreased

CCCCCCOC(C)=O [hexyl acetate]
change of EAG response in dsOBP6 group versus controls (antennae of forager bees): significantly decreased

C/C1=C\CC/C(C)=C/CC(C)(C)/C=C/C1 [α-caryophllene]
binding affinity with AcerOBP6 (in words) (AcerOBP6): could not bind or had a weak binding affinity
pIC50 (AcerOBP6): < 5.00

CC/C=C\C/C=C\C/C=C\CCCCCCCC(=O)OCC [α-ethyl linolenic]
binding affinity with AcerOBP6 (in words) (AcerOBP6): could not bind or had a weak binding affinity
pIC50 (AcerOBP6): < 5.00

C=C/C(C)=C/C/C=C(\C)CCC=C(C)C [α-farnesene]
binding affinity with AcerOBP6 (in words) (AcerOBP6): could not bind or had a weak binding affinity
pIC50 (AcerOBP6): < 5.00

C=C/C(C)=C/CC=C(C)C [β-ocimene]
pKi (AcerOBP6): 5.28
pIC50 (AcerOBP6): 5.26
change of EAG response in dsOBP6 group versus controls (antennae of forager bees): significantly decreased

(+) -Cinene
pKi (AcerOBP6): 5.28
pIC50 (AcerOBP6): 5.26
change of EAG response in dsOBP6 group versus controls (antennae of forager bees): significantly decreased

-Ionone
pKi (AcerOBP6): 5.29
pIC50 (AcerOBP6): 5.26

-Pinene
pKi (AcerOBP6): 5.20
pIC50 (AcerOBP6): 5.18
